From patent publication US20110251220A1, “Pharmaceutical compositions comprising gamma secretase modulators” (priority 2008, published 2011)

Key:
[1] = tested on: LP-1 cells; assay: Cell cycle analysis (propidium iodide), sub-G1 fraction, LP-1; assay type: cell-based, human; settings: LP-1, after 72 h
Method: (§1) The compound according to example 1, hereinafter referred to as GSI15, (compound RH02015SC, Maybridge, Acros Organics, Geel, Belgium) was freshly dissolved as 26 mM stock solution in Dimethylsulfoxide (DMSO). Multiple myeloma therapeutics used were melphalan (marketed as Alkeran®, GlaxoSmithKline, Munich, Germany) and bortezomib (marketed as Velcade®, Janssen-Cilag, Neuss, Germany). Melphalan was freshly dissolved at 10 mg/ml in 0.9% NaCl-solution. Bortezomib was freshly dissolved at 100 ng/ml in 0.9% NaCl solution. Gamma Secretase Inhibitor (GSI) treatment for apoptosis assessment by AnnexinV/PI staining, cell cycle analysis and coculture experiments was performed in 6-well plates. GSI15 stock solution was added directly to the cell suspension. GSI treatment for assaying proliferation was performed in 96-well plates. […]
(§2) For cell cycle analysis 2×10^5 cells were spun down, medium was aspirated and cells washed with PBS. […] After 10 minutes incubation in the dark at room temperature, cells were analyzed by flow cytometry. The amount of apoptotic cells was determined by AnnexinV/propidium iodide staining using Human AnnexinV-FITC Kit (Bender Medsystems, Vienna, Austria), according to manufacturer's protocol. […] Cells were then spun down again, resuspended in binding buffer containing PI and analyzed by flow cytometry.

[2] = tested on: human podocyte cell line; assay: TGFβ-induced apoptosis in human podocyte cell line (Cell Death Detection ELISA); assay type: cell-based
Method: The percentage of the apoptotic cells was determined after 24 hours using the Cell Death Detection ELISA (Roche Diagnostics, Mannheim, Germany) according to the manufaturer's protocol.

[3] = tested on: U266 cells; assay: PARP cleavage by Western blotting, U266; assay type: cell-based, human
Method: Whole cell extracts were prepared and quantified as described in Jundt F, Anagnostopoulos I, Forster R, Mathas S, Stein H, Dorken B. Activated Notch1 signaling promotes tumor cell proliferation and survival in Hodgkin and anaplastic large cell lymphoma. Blood. 2002; 99:3398-3403. Proteins (30 μg) were resolved by sodium dodecyl sulfate-polyacrylamide gel electrophoresis (SDS-PAGE) and transferred to nitrocellulose membranes. Protein loading was normalized by Ponceau red staining. Membranes were incubated with monoclonal mouse anti-Notch1 antibody (no. 552466; BD Biosciences, Heidelberg, Germany), anti-Jagged1 antibody (sc-8303; Santa Cruz Biotechnology), polyclonal rabbit anti-Delta antiboday (Santa Cruz Biotechnology), polyclonal rabbit anti-cleaved PARP (Asp214) antibody (Cell Signaling Technologies, Frankfurt a.M., Germany) or mouse monoclonal anti-tubulin antibody (Sigma, Deisenhofen, Germany).
Secondary antibodies were goat anti-mouse (Promega, Mannheim, Germany), goat anti-rat (Dianova, Hamburg, Germany), and goat anti-rabbit (Santa Cruz Biotechnology) horseradish peroxidase (HRP)-conjugated antibodies. Detection was done using Pico chemi-luminescence reagent (Perbio Science, Bonn, Germany).

[4] = tested on: Hes-1; assay: Hes-1 mRNA expression in OCL (quantitative RT-PCR); assay type: cell-based, human; settings: mono- and coculture with OPM-2
Method: In osteoclast coculture experiments, OPM-2 cells (1×10^6 cells) were added to osteoclasts in 60 mm dishes (4×10^6 cells per dish) in 3 ml MEM medium supplemented with 10% FCS, 100 U/ml penicillin, 100 μg/ml streptomycin. GSI15 (30 μM, 60 μM) or DMSO (equivalent to 60 μM) as solvent control were added to each well (daily treatment). After 48 h, 0.5 ml OPM-2 cell suspension were harvested per well and subjected to AnnexinV-FITC/PI staining. Remaining OPM-2 cells were harvested and lysed for either RNA or protein preparation. The monolayer of osteoclasts was washed twice with ice-cold PBS and then lysed for either RNA or protein preparation directly on the plate.
Quantitative real-time reverse transcription-PCR (RT-PCR) analysis was performed using the following primer/probe sets: human Hes-1 (forward—[…], reverse—[…], probe—FAM-[…]-TAMRA) human TRAP5 (forward—[…], reverse—[…], probe FAM-[…]-TAMRA), human beta2-microglobulin (forward—ccc cca ctg aaa aag atg ag, reverse—atc caa tcc aaa tgc ggc, probe—FAM-CCTGCCGTGTGAACCATGTGACTTT-TAMRA) served as normalizer. […] For the RT-PCR reaction SuperScript™ III Platinum® One-Step Quantitative RT-PCR System (Invitrogen, Karlsruhe, Germany) was used. 50 ng total RNA were used per reaction, each RNA sample was analyzed in three replicates. […] Normalized mRNA expression data were then calculated as values relative to the respective untreated sample.

[5] = tested on: U266 cells; assay: Apoptosis by AnnexinV-FITC/PI staining, U266; assay type: cell-based, human
Method: as §1, §2

In the case of CC(C)c1ccc(S(=O)(=O)Nc2cccnc2Oc2ccc(Cl)cc2)cc1 [Example 1, N-(2-(4-chlorophenoxy)pyridin-3-yl)-4-isopropylbenzenesulfonamide], the sub-G1 fraction [1] is reported as “increase in the sub-G1 fraction”, the “effect in podocyte cell culture experiments” value [2] is reported as “positive effect” and the inhibition at 0.5 µM ([2]; Homo sapiens, 500 nM, compared to TGFβ alone, 24 hours) is reported as 41%. For the same compound, the “PARP cleavage product (apoptosis marker)” value [3] was “not in the U266 cell line”, the “Hes-1 mRNA expression” value [4] was “diminished Hes-1 mRNA expression” and the AnnexinV-FITC/PI staining [5] was “remained unaffected”.
